Laboratory results from US20250134870A1, “PATHWAY MODULATOR, PHARMACEUTICAL COMPOSITION HAVING SAME, USE THEREOF, AND THERAPEUTIC METHOD USING SAME” (Jiangsu Yahong Meditech Co., Ltd., priority 2021, published 2025).

How the values were obtained:
[1] = test system: dextran sulfate sodium (DSS)-induced colitis; experiment: DSS-induced colitis in mice, 3.1% DSS: body weight change and DAI (Example 11); format: in vivo, C57BL/6 mice; conditions: 100 mg/kg, qd
Text: The experimental mice were housed in an SPF grade animal room for three days for adaptation, and randomly divided into 7 groups (6 model groups and 1 control group) of 10 mice in each group. Dosing of mice started on Day 0 and ended on Day 7.
The mouse enteritis model of this Example was established by DSS induction: mice in the model group were provided with a 3.1% DSS (dextran sulfate sodium, molecular weight 36,000-50,000) aqueous solution from Day 0 to Day 7, and the DSS aqueous solution was replaced with freshly prepared solution every day to prevent degradation. Mice in the normal control group were provided with normal water. The experimental period was 9 days, and the mice were euthanized and samples were collected at the experimental endpoint.
The DAI score was assessed daily. The DAI score consisted of 3 parts: body weight change, stool characteristics, and hematochezia (or occult blood) score, and the specific scoring criteria were as shown in Table 49. The DAI scoring of all mice was done by the same staff throughout the experiment.
Mice were euthanized at the experimental endpoint. The colon of mice was dissected, and photograph was taken, the length was measured, and the contents were removed before weighing.
The data were expressed as mean±standard error (X±s). Body weight change and disease activity score were statistically analyzed by two-way ANOVA and comparison between groups were performed by Dunnett's test. Other data were statistically analyzed by one-way ANOVA and comparison between groups were performed by Dunnett's test. All analyses were performed using GraphPad Prism software. * P<0.05, ** P<0.01, *** P<0.005, **** P<0.0001 vs. solvent group.

[2] = test system: imiquimod (IMQ)-induced psoriasis; experiment: Imiquimod (IMQ)-induced psoriasis in mice: erythema, scales, thickness, total score, AUC (Example 8); format: in vivo, Balb/c mice; design: key to erythema score / scales score / thickness score: 0 = none, 1 = mild, 2 = moderate, 3 = obvious/severe; key to total score of erythema + scales + thickness: sum of three 0-3 scores (erythema + scales + thickening), 0-9; conditions: for erythema score / scales score: BID × 2 days; for thickness score / total score of erythema + scales + thickness: positive control group
Protocol: All mice were shaved with a pet shaver to get an area of 2×3 cm on the back one day before the start of the experiment.
65 animals were randomly divided into groups according to body weight, and the dosing regimen was as follows.
Imiquimod (IMQ) cream: 62.5 mg of IMQ cream for each mouse in G2 to G7; Dexamethasone (DEX) ointment: 70 mg of ointment for each mouse in G4;
Tofacitinib: Tofacitinib was dissolved in dimethyl sulfoxide to 5 mg/mL, and 50 μL was added to IMQ cream for daily treatment.
Mice in Groups 2 to 7 received daily topical doses of 62.5 mg of IMQ cream on their shaved back from Day 0 to Day 7.
Dosing of the test compounds and reference substance was carried out according to Table 29 for 7 consecutive days.
To assess the severity of inflammation of skin on the back, the skin on the back was scored according to Table 30. Erythema, scales and thickening were scored independently on a scale of 0 to 3, 0, none; 1. mild; 2. moderate; 3. obvious/severe.
The inhibition rate was calculated according to the following formula: Inhibition rate=[AUC (solvent)−AUC (treatment)]/AUC (solvent)×100%. Wherein, solvent referred to the solvent group corresponding to the route of administration.

[3] = test system: bleomycin-induced skin fibrosis; experiment: Bleomycin-induced skin fibrosis in mice: skin histopathology (dermal thickness, capillary density score, inflammatory cell infiltration score); format: in vivo, male C57BL/6 mice; conditions: 50 mg/kg PO BID, 28 days
Protocol: The skin tissue of the lesioned skin was subjected to dehydration, embedding and sectioning according to the pathology SOP, and the tissue was stained by HE and Masson staining. Histopathological analysis was performed according to the following methods:
Masson-stained sections were panoramically scanned by using Nanozomer S210 and the scanned images were subjected to quantitative analysis using Visiopharm VIS6.0 software. The degree of fibrosis was currently represented by the dermal thickness after Masson staining.
The fields of observation was selected in the dermis layer of the lesioned area (the number of fields selected was determined according to the size of the lesioned area) and scored according to the area occupied by capillaries in the area: • 0: No capillary formed • 1: The proportion of capillaries formed was less than 25%; • 2: The proportion of capillaries formed was 25-50%; • 3: The proportion of capillaries formed was 50-75%; • 4: The proportion of capillaries formed was greater than 75%. 3.8.3 Inflammatory cell infiltration score of dermis layer
The fields of observation was selected in the dermis layer of the lesioned area (the number of fields selected was determined according to the size of the lesioned area) and scored according to the degree of inflammatory cell infiltration: • 0: No inflammatory cell infiltration: • 1: A small amount of focal inflammatory cell infiltration; • 2: Scattered diffuse inflammatory cell infiltration: • 3: A large amount of diffuse inflammatory cell infiltration; • 4: A large amount of agglomerated inflammatory cell infiltration.

[4] = Day 0, 12.5 mg/kg topical QD × 5 days
[5] = Day 1, 12.5 mg/kg topical QD × 5 days
[6] = Day 2, 12.5 mg/kg topical QD × 5 days
[7] = Day 3, 12.5 mg/kg topical QD × 5 days
[8] = Day 4, 12.5 mg/kg topical QD × 5 days
[9] = Day 5, 12.5 mg/kg topical QD × 5 days
[10] = Day 6, 12.5 mg/kg topical QD × 5 days
[11] = Day 7, 12.5 mg/kg topical QD × 5 days

How did the “symptoms caused by DSS-induced colitis (diarrhea, hematochezia)” value [1] turn out when `O=C(O)/C=C/C(=O)O` [Fumaric acid] was run?
Its value is “slightly ameliorate the symptoms of diarrhea and hematochezia”.

What about the “DSS-induced body weight loss” value ([1]; vs solvent group) of the same compound?
Its value is “showed a trend of alleviating DSS-induced body weight loss”.

And the “disease activity score (DAI)” value ([1]; vs solvent group, relatively obvious on Day 4 and Day 5)?
Its value is “slightly improved”.

What does the source list for `C[C@@H]1CCN(C(=O)CC#N)C[C@@H]1N(C)c1ncnc2[nH]ccc12` [Tofacitinib]?
efficacy on clinical score ([2]; 12.5 mg/kg topical QD × 5 days, then BID × 2 days): showed efficacy after doubling the dose; erythema score [2, 4]: 0; scales score [2, 4]: 0; thickness score ([2]; Day 0): 0; total score of erythema + scales + thickness ([2]; Day 0): 0; erythema score [2, 5]: 0; scales score [2, 5]: 0; thickness score ([2]; Day 1): 0.8; total score of erythema + scales + thickness ([2]; Day 1): 0.8; erythema score [2, 6]: 1.4; scales score [2, 6]: 0; thickness score ([2]; Day 2): 1.4; total score of erythema + scales + thickness ([2]; Day 2): 2.8; erythema score [2, 7]: 1.9; scales score [2, 7]: 0.4; thickness score ([2]; Day 3): 2.2; total score of erythema + scales + thickness ([2]; Day 3): 4.5; erythema score [2, 8]: 2.2; scales score [2, 8]: 0.7; thickness score ([2]; Day 4): 2; total score of erythema + scales + thickness ([2]; Day 4): 4.9; erythema score [2, 9]: 2; scales score [2, 9]: 1.4; thickness score ([2]; Day 5): 2.2; total score of erythema + scales + thickness ([2]; Day 5): 5.6; erythema score [2, 10]: 1.8; scales score [2, 10]: 1.3; thickness score ([2]; Day 6): 2; total score of erythema + scales + thickness ([2]; Day 6): 5.1; erythema score [2, 11]: 1.7; scales score [2, 11]: 1.6; thickness score ([2]; Day 7): 1.9; total score of erythema + scales + thickness ([2]; Day 7): 5.2

How did the “inflammatory cell infiltration of the lesioned skin” value [3] turn out when `COC(=O)c1ccc2c(c1)NC(=O)/C2=C(\Nc1ccc(N(C)C(=O)CN2CCN(C)CC2)cc1)c1ccccc1` [Nintedanib] was run?
The value was “visibly reduce”.

And the subdermal capillary hyperplasia [3]?
The subdermal capillary hyperplasia was “visibly reduce”.
